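The compound was tested at five concentrations on cells cultured in 96-well plates, with a 48-hour exposure period. The concentration for 50% growth inhibition is given as GI50. TGI: concentration producing complete growth inhibition.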
Key:
Assay in all cases: NCI anticancer screen, dose series, 48 h
HCC-2998 colon = tested on: HCC-2998 colon
SF-295 CNS = tested on: SF-295 CNS
SK-MEL-2 melanoma = tested on: SK-MEL-2 melanoma
OVCAR-8 ovarian = tested on: OVCAR-8 ovarian
UACC-62 melanoma = tested on: UACC-62 melanoma
IGROV1 ovarian = tested on: IGROV1 ovarian
RXF 393 renal = tested on: RXF 393 renal
T-47D breast = tested on: T-47D breast
NCI-H460 lung = tested on: NCI-H460 lung
DU-145 prostate = tested on: DU-145 prostate
SW-620 colon = tested on: SW-620 colon
KM12 colon = tested on: KM12 colon
LOX IMVI melanoma = tested on: LOX IMVI melanoma
NCI/ADR-RES ovarian = tested on: NCI/ADR-RES ovarian
SF-539 CNS = tested on: SF-539 CNS
SR leukemia = tested on: SR leukemia
HS 578T breast = tested on: HS 578T breast
NCI-H226 lung = tested on: NCI-H226 lung
MDA-MB-435 = tested on: MDA-MB-435
MDA-MB-231 breast = tested on: MDA-MB-231 breast
NCI-H23 lung = tested on: NCI-H23 lung
SK-OV-3 ovarian = tested on: SK-OV-3 ovarian
OVCAR-4 ovarian = tested on: OVCAR-4 ovarian
A549 NSCLC = tested on: A549 NSCLC
SNB-19 CNS = tested on: SNB-19 CNS
OVCAR-3 ovarian = tested on: OVCAR-3 ovarian
SK-MEL-28 melanoma = tested on: SK-MEL-28 melanoma
RPMI-8226 leukemia = tested on: RPMI-8226 leukemia
A498 renal = tested on: A498 renal
TK-10 renal = tested on: TK-10 renal
COLO 205 colon = tested on: COLO 205 colon
NCI-H522 lung = tested on: NCI-H522 lung
MCF7 breast = tested on: MCF7 breast
SNB-75 CNS = tested on: SNB-75 CNS
EKVX NSCLC = tested on: EKVX NSCLC
MALME-3M melanoma = tested on: MALME-3M melanoma
786-0 renal = tested on: 786-0 renal
U251 CNS = tested on: U251 CNS
OVCAR-5 ovarian = tested on: OVCAR-5 ovarian
HCT-15 colon = tested on: HCT-15 colon
M14 melanoma = tested on: M14 melanoma
SK-MEL-5 melanoma = tested on: SK-MEL-5 melanoma
UO-31 renal = tested on: UO-31 renal
SF-268 CNS = tested on: SF-268 CNS
BT-549 breast = tested on: BT-549 breast
HOP-62 NSCLC = tested on: HOP-62 NSCLC
PC-3 prostate = tested on: PC-3 prostate
HT29 colon = tested on: HT29 colon
SN12C renal = tested on: SN12C renal
ACHN renal = tested on: ACHN renal
HOP-92 NSCLC = tested on: HOP-92 NSCLC
CAKI-1 renal = tested on: CAKI-1 renal
CCRF-CEM leukemia = tested on: CCRF-CEM leukemia
MOLT-4 leukemia = tested on: MOLT-4 leukemia
HCT-116 colon = tested on: HCT-116 colon
HL-60(TB) leukemia = tested on: HL-60(TB) leukemia
UACC-257 melanoma = tested on: UACC-257 melanoma
K-562 leukemia = tested on: K-562 leukemia

## Cc1cc2c(c(S(=O)(=O)c3ccc(Cl)cc3[N+](=O)[O-])c1)NCCC2
HCC-2998 colon
  TGI: > 100 µM
SF-295 CNS
  TGI: > 100 µM
SK-MEL-2 melanoma
  TGI: > 100 µM
OVCAR-8 ovarian
  TGI: > 100 µM
UACC-62 melanoma
  TGI: > 100 µM
IGROV1 ovarian
  TGI: > 100 µM
RXF 393 renal
  TGI: > 100 µM
T-47D breast
  TGI: > 100 µM
NCI-H460 lung
  TGI: > 100 µM
DU-145 prostate
  TGI: > 100 µM
SW-620 colon
  TGI: > 100 µM
KM12 colon
  TGI: > 100 µM
LOX IMVI melanoma
  TGI: > 100 µM
NCI/ADR-RES ovarian
  TGI: > 100 µM
SF-539 CNS
  TGI: > 100 µM
SR leukemia
  TGI: > 100 µM
HS 578T breast
  TGI: > 100 µM
NCI-H226 lung
  TGI: > 100 µM
MDA-MB-435
  TGI: > 100 µM
MDA-MB-231 breast
  TGI: > 100 µM
NCI-H23 lung
  TGI: > 100 µM
SK-OV-3 ovarian
  TGI: > 100 µM
OVCAR-4 ovarian
  TGI: > 100 µM
A549 NSCLC
  TGI: > 100 µM
SNB-19 CNS
  TGI: > 100 µM
OVCAR-3 ovarian
  TGI: > 100 µM
SK-MEL-28 melanoma
  TGI: > 100 µM
RPMI-8226 leukemia
  TGI: > 100 µM
A498 renal
  TGI: > 100 µM
TK-10 renal
  TGI: > 100 µM
COLO 205 colon
  TGI: > 100 µM
NCI-H522 lung
  TGI: > 100 µM
MCF7 breast
  TGI: > 100 µM
SNB-75 CNS
  TGI: > 100 µM
EKVX NSCLC
  TGI: > 100 µM
MALME-3M melanoma
  TGI: > 100 µM
786-0 renal
  TGI: > 100 µM
U251 CNS
  TGI: > 100 µM
OVCAR-5 ovarian
  TGI: > 100 µM
HCT-15 colon
  TGI: > 100 µM
M14 melanoma
  TGI: > 100 µM
SK-MEL-5 melanoma
  TGI: > 100 µM
UO-31 renal
  TGI: > 100 µM
SF-268 CNS
  TGI: > 100 µM
BT-549 breast
  TGI: > 100 µM
HOP-62 NSCLC
  TGI: > 100 µM
PC-3 prostate
  TGI: > 100 µM
HT29 colon
  TGI: > 100 µM
SN12C renal
  TGI: > 100 µM
ACHN renal
  TGI: > 100 µM

## CSc1nc(-c2cc3ccccc3o2)cc(-c2ccc(Cl)cc2)c1C#N
SF-295 CNS
  GI50: 6.17 µM
  TGI: 37.8 µM
OVCAR-8 ovarian
  GI50: 3.57 µM
  TGI: > 100 µM
HOP-92 NSCLC
  GI50: 3.4 µM
  TGI: 15.2 µM
UACC-62 melanoma
  GI50: 5.03 µM
  TGI: > 49.8 µM
IGROV1 ovarian
  GI50: 0.706 µM
  TGI: 13.4 µM
RXF 393 renal
  GI50: 3.7 µM
  TGI: 20.1 µM
T-47D breast
  GI50: 0.93 µM
  TGI: > 100 µM
DU-145 prostate
  GI50: 3.87 µM
  TGI: > 100 µM
SW-620 colon
  GI50: > 100 µM
  TGI: > 100 µM
KM12 colon
  GI50: > 100 µM
  TGI: > 100 µM
LOX IMVI melanoma
  GI50: 9.53 µM
  TGI: > 100 µM
CAKI-1 renal
  GI50: 5.28 µM
  TGI: > 73.4 µM
NCI/ADR-RES ovarian
  GI50: 44.9 µM
  TGI: > 100 µM
SF-539 CNS
  GI50: 2.99 µM
  TGI: 14.6 µM
SR leukemia
  GI50: 28.6 µM
  TGI: > 100 µM
HS 578T breast
  GI50: 22.2 µM
  TGI: > 64.3 µM
CCRF-CEM leukemia
  GI50: > 100 µM
  TGI: > 100 µM
NCI-H226 lung
  GI50: 6.28 µM
  TGI: > 100 µM
MOLT-4 leukemia
  GI50: > 85 µM
  TGI: > 100 µM
MDA-MB-435
  GI50: > 100 µM
  TGI: > 100 µM
MDA-MB-231 breast
  GI50: 3.58 µM
  TGI: 50 µM
NCI-H23 lung
  GI50: 9.24 µM
  TGI: > 100 µM
SK-OV-3 ovarian
  GI50: 5.29 µM
  TGI: 56.8 µM
HCT-116 colon
  GI50: 5.11 µM
  TGI: > 100 µM
OVCAR-4 ovarian
  GI50: > 100 µM
  TGI: > 100 µM
A549 NSCLC
  GI50: 4.48 µM
  TGI: > 100 µM
SNB-19 CNS
  GI50: 19.7 µM
  TGI: > 76.5 µM
OVCAR-3 ovarian
  GI50: 2.58 µM
  TGI: > 24.2 µM
SK-MEL-28 melanoma
  GI50: > 100 µM
  TGI: > 100 µM
RPMI-8226 leukemia
  GI50: > 67.6 µM
  TGI: > 100 µM
A498 renal
  GI50: 27 µM
  TGI: > 100 µM
HL-60(TB) leukemia
  GI50: > 100 µM
  TGI: > 100 µM
UACC-257 melanoma
  GI50: > 100 µM
  TGI: > 100 µM
TK-10 renal
  GI50: 8.07 µM
  TGI: 31.8 µM
NCI-H522 lung
  GI50: 8.67 µM
  TGI: > 100 µM
MCF7 breast
  GI50: 0.352 µM
  TGI: > 100 µM
SNB-75 CNS
  GI50: 5.56 µM
  TGI: 26.6 µM
EKVX NSCLC
  GI50: 0.918 µM
  TGI: > 100 µM
MALME-3M melanoma
  GI50: 20.5 µM
  TGI: > 100 µM
786-0 renal
  GI50: 7.36 µM
  TGI: 76.8 µM
U251 CNS
  GI50: 3.76 µM
  TGI: 28.4 µM
OVCAR-5 ovarian
  GI50: > 84.6 µM
  TGI: > 100 µM
M14 melanoma
  GI50: 45.5 µM
  TGI: > 100 µM
SK-MEL-5 melanoma
  GI50: > 100 µM
  TGI: > 100 µM
UO-31 renal
  GI50: 1.73 µM
  TGI: > 100 µM
SF-268 CNS
  GI50: 18 µM
  TGI: > 80.1 µM
BT-549 breast
  GI50: 23.8 µM
  TGI: 75.7 µM
HOP-62 NSCLC
  GI50: 12.7 µM
  TGI: > 79.6 µM
PC-3 prostate
  GI50: 8.82 µM
  TGI: > 100 µM
SN12C renal
  GI50: 26.9 µM
  TGI: > 100 µM
K-562 leukemia
  GI50: > 100 µM
  TGI: > 100 µM
ACHN renal
  GI50: 3.03 µM
  TGI: 67.7 µM

Reference: PubChem BioAssay (NCI)
